Measured values published in article PMC6017654, “Ionic Liquid-Promoted Synthesis of Novel Chromone-Pyrimidine Coupled Derivatives, Antimicrobial Analysis, Enzyme Assay, Docking Study and Toxicity Study” (Molecules : A Journal of Synthetic Chemistry and Natural …, 2018).

Assays:
Swiss albino mice = test: In vivo acute oral toxicity study and gross behavioral study (OECD guideline No. 425)
Description: The in vivo acute oral toxicity and gross behavioral study results of the newly synthesized compounds 6c and 6f are as listed in Table 12 [26].
Each group, consisting of six Swiss albino mice (18–22 gm weight, overnight fasted), were kept in colony cage at 25 ± 2 °C with 55% relative humidity and 12 h of light and dark cycle. A specified dose of 100, 250, 500, 750, 1000, 1500 and 2000 mg/kg body weight of mice was administered orally as a single dose. The acute toxic symptoms and the behavioral changes produced by the test compounds were observed continuously for 4 h periods at 8th, 12th and 24th h on set of toxic symptoms and the gross behavioral changes were also recorded. These animals were maintained for further 10 days with observation made daily. The in vivo acute oral toxicity study was carried out at animal house at the Y.B. Chavan College of Pharmacy, Aurangabad IAEC approval number CPCSEA/IAEC/P’col-52/2015-16/115 [26].

[1] = tested on: Staphylococcus aureus (NCIM-2901); test: In vitro antibacterial activity (MIC100, two fold serial dilution, NCCLS); format: cell-based; settings: Staphylococcus aureus, NCIM2901, 24 h, read-out: MIC100, S. aureus NCIM-2901, average of three readings
Description: (§1) All the synthesized compounds 4(a–f) and 6(a–f) were screened for their in vitro antibacterial activity against Staphylococcus aureus (NCIM-2901), Escherichia coli 1411 (standard laboratory strains) and Escherichia coli SM1411 (an acrAB deficient derivative of 1411). Minimum inhibitory concentration (MIC100) values were determined using methods recommended by National Committee for Clinical Laboratory Standards (NCCLS). Dimethyl sulfoxide (DMSO) was used as solvent control.
(§2) All the synthesized compounds 4(a–f) and 6(a–f) were screened for their in vitro antibacterial activity against Staphylococcus aureus (NCIM-2901) and Escherichia coli 1411 (standard laboratory strains) and Escherichia coli SM1411 (an acrAB deficient derivative of 1411). Minimum inhibitory concentration (MIC100) values were determined using the method recommended by National Committee for Clinical Laboratory Standards (NCCLS). In vitro antibacterial activities of the synthesized compounds 4(a–f) and 6(a–f) were tested in Nutrient Broth (NB) for Bacteria by the two fold serial dilution method. Seeded broth (broth containing microbial spores) was prepared in NB from 24 h old bacterial cultures on nutrient agar (Hi-media) at 37 ± 1 °C. The bacterial suspension was adjusted with sterile saline to a concentration of […]. The synthesized compounds and standard drug D-cycloserine were prepared by two fold serial dilutions to obtain the required concentrations. The tubes were incubated in BOD incubators at 37 ± 1 °C for bacteria. The MICs were recorded by visual observations after 24 h (for bacteria) of incubation.

Escherichia coli 1411 = test: as above; format: cell-based; settings: Escherichia coli, 1411, 24 h, read-out: MIC100
Description: as §1, §2

[2] = tested on: Escherichia coli SM1411 (an acrAB deficient derivative of 1411); test: as above; format: cell-based; settings: 24 h, read-out: MIC100
Description: as §1, §2

`COc1ccc2occ(C3NC(=S)NC(C)=C3C(=O)NN)c(=O)c2c1` (centres unmarked) [Compound 6f, 4-(6-Methoxy-4-oxo-4H-chromen-3-yl)-6-methyl-2-thioxo-1,2,3,4-tetrahydropyrimidine-5-carbohydrazide] was tested, and the “No. of Deaths” value (Swiss albino mice; Swiss albino mice, single oral dose 100 to 2000 mg/kg) was “N”, the lethal dose (Swiss albino mice; mice, oral, single dose, no mortality up to 2000 mg/kg) was “above 2000 mg/kg body weight” and the MIC [1] was over 200 µg/mL. For the same molecule, the MIC (Escherichia coli 1411) was over 60 µg/mL and the MIC [2] was over 60 µg/mL.
